The structures appear in SMILES notation.

The test system of series [1] is recombinant NL4-3 virus (nef section replaced with Renilla luciferase gene) in MT-2 cells. In words: HIV cell culture assay (antiviral activity, luciferase readout). The series is classed as cell-based. Particulars: Renilla, NL43, MT-2 cells infected for 4-5 days with recombinant NL4-3 Renilla luciferase virus. An outline of the steps: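 Reporter virus is produced in 293T cells and its titer set in MT-2 cells by luciferase activity. MT-2 cells are then infected in the presence of serially diluted compound for 4-5 days. Luciferase is quantified and EC50 fitted to the median effect equation.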

Series [2] can be described thus: Compound cytotoxicity, XTT-based colorimetric assay. The series is classed as cell-based. Particulars: human; uninfected MT2 cells, day 4, XTT; read-out: CC50. An outline of the steps: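 Uninfected MT2 cells were treated with compound under the same protocol as the antiviral assay. Viability was read on day 4 with an XTT colorimetric assay, from which CC50 values were derived.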
Background: Formazan colour is commonly taken as a measure of viable cells.

As to `Cc1cc(C2CCC(F)(F)CC2)nc2nc([C@H](Cc3cc(F)cc(F)c3)NC(=O)Cn3nc(C(F)F)c4c3C(F)(F)[C@@H]3C[C@H]43)n(-c3ccc(Cl)c4c(NS(C)(=O)=O)nn(CCN5C[C@@H](C)O[C@@H](C)C5)c34)c(=O)c12` (atropisomer, axis not shown; (P)) [Example 159, N-[(1S)-1-[(3P)-3-(4-chloro-1-{2-[(2R,6S)-2,6-dimethylmorpholin-4-yl]ethyl}-3-methanesulfonamido-1H-indazol-7-yl)-7-(4,4-difluorocyclohexyl)-5-methyl-4-oxo-3H,4H-pyrido[2,3-d]pyrimidin-2-yl]-2-(3,5-difluorophenyl)ethyl]-2-[(2S,4R)-9-(difluoromethyl)-5,5-difluoro-7,8-diazatricyclo[4.3.0.0^2,4]nona-1(6),8-dien-7-yl]acetamide], in series [1], the EC50 (in general, the concentration that produces a half-maximal response) came out at 17 pM. In series [2], the CC50 – broadly, the concentration at which the toxic effect on the cells reaches its halfway point – at 4 days is > 50000 pM.
On to `CO[C@@H](C)Cn1nc(NS(C)(=O)=O)c2c(Cl)ccc(-n3c([C@H](Cc4cc(F)cc(F)c4)NC(=O)Cn4nc(C(F)F)c5c4C(F)(F)[C@@H]4C[C@H]54)nc4nc(C5CCC(F)(F)CC5)cc(C)c4c3=O)c21` (atropisomer, axis not shown; (P)) [Example 78, N-[(1S)-1-[(3P)-3-{4-chloro-3-methanesulfonamido-1-[(2S)-2-methoxypropyl]-1H-indazol-7-yl}-7-(4,4-difluorocyclohexyl)-5-methyl-4-oxo-3H,4H-pyrido[2,3-d]pyrimidin-2-yl]-2-(3,5-difluorophenyl)ethyl]-2-[(2S,4R)-9-(difluoromethyl)-5,5-difluoro-7,8-diazatricyclo[4.3.0.0^2,^4]nona-1(6),8-dien-7-yl]acetamide], for which the EC50 in series [1] was found to be 16 pM. The CC50 at 4 days in series [2] was > 50000 pM.
On the same counts, the results for `Cc1cc(C2(F)CCC(F)(F)CC2)nc2nc([C@H](Cc3cc(F)cc(F)c3)NC(=O)Cn3nc(C(F)F)c4c3C(F)(F)[C@@H]3C[C@H]43)n(-c3ccc(Cl)c4c(NS(C)(=O)=O)nn(CCN5CCO[C@@H](C(C)C)C5)c34)c(=O)c12` (atropisomer, axis not shown; (P)) [Example 574, N-[(1S)-1-[(3P)-3-(4-chloro-3-methanesulfonamido-1-{2-[(2S)-2-(propan-2-yl)morpholin-4-yl]ethyl}-1H-indazol-7-yl)-5-methyl-4-oxo-7-(1,4,4-trifluorocyclohexyl)-3H,4H-pyrido[2,3-d]pyrimidin-2-yl]-2-(3,5-difluorophenyl)ethyl]-2-[(2S,4R)-9-(difluoromethyl)-5,5-difluoro-7,8-diazatricyclo[4.3.0.0^2,^4]nona-1(6),8-dien-7-yl]acetamide] are 19 pM and > 20000 pM.
As to `CCc1cc(C2CCC(F)(F)CC2)nc2nc([C@H](Cc3cc(F)cc(F)c3)NC(=O)Cn3nc(C(F)F)c4c3C(F)(F)[C@@H]3C[C@H]43)n(-c3ccc(Cl)c4c(NS(C)(=O)=O)nn(CCOC)c34)c(=O)c12` (atropisomer, axis not shown; (P)) [Example 632, N-[(1S)-1-[(3P)-3-[4-chloro-3-methanesulfonamido-1-(2-methoxyethyl)-1H-indazol-7-yl]-7-(4,4-difluorocyclohexyl)-5-ethyl-4-oxo-3H,4H-pyrido[2,3-d]pyrimidin-2-yl]-2-(3,5-difluorophenyl)ethyl]-2-[(2S,4R)-9-(difluoromethyl)-5,5-difluoro-7,8-diazatricyclo[4.3.0.0^2,^4]nona-1(6),8-dien-7-yl]acetamide], in series [1], the EC50 was 21 pM. Also, the CC50 at 4 days in series [2] is > 50000 pM.
For `Cc1cc(C2CCC(F)(F)CC2)nc2nc([C@H](Cc3cc(F)cc(F)c3)NC(=O)Cn3nc(C(F)F)c4c3C(F)(F)[C@@H]3C[C@H]43)n(-c3ccc(Cl)c4c(NS(C)(=O)=O)nn(CCOC(F)F)c34)c(=O)c12` (atropisomer, axis not shown; (P)) [Example 94, N-[(1S)-1-[(3P)-3-{4-chloro-1-[2-(difluoromethoxy)ethyl]-3-methanesulfonamido-1H-indazol-7-yl}-7-(4,4-difluorocyclohexyl)-5-methyl-4-oxo-3H,4H-pyrido[2,3-d]pyrimidin-2-yl]-2-(3,5-difluorophenyl)ethyl]-2-[(2S,4R)-9-(difluoromethyl)-5,5-difluoro-7,8-diazatricyclo[4.3.0.0^2,^4]nona-1(6),8-dien-7-yl]acetamide] the same measures were 23 pM and > 50000 pM.
As for `CO[C@H](C)Cn1nc(NS(C)(=O)=O)c2c(Cl)ccc(-n3c([C@H](Cc4cc(F)cc(F)c4)NC(=O)Cn4nc(C(F)F)c5c4C(F)(F)[C@@H]4C[C@H]54)nc4nc(C5CCC(F)(F)CC5)cc(C)c4c3=O)c21` (atropisomer, axis not shown; (P)) [Example 77, N-[(1S)-1-[(3P)-3-{4-chloro-3-methanesulfonamido-1-[(2R)-2-methoxypropyl]-1H-indazol-7-yl}-7-(4,4-difluorocyclohexyl)-5-methyl-4-oxo-3H,4H-pyrido[2,3-d]pyrimidin-2-yl]-2-(3,5-difluorophenyl)ethyl]-2-[(2S,4R)-9-(difluoromethyl)-5,5-difluoro-7,8-diazatricyclo[4.3.0.0^2,^4]nona-1(6),8-dien-7-yl]acetamide], the EC50 in series [1] was determined as 18 pM. The CC50 at 4 days in series [2] was > 50000 pM.
On the same counts, the results for `COCCCn1nc(NS(C)(=O)=O)c2c(Cl)ccc(-n3c([C@H](Cc4cc(F)cc(F)c4)NC(=O)Cn4nc(C(F)F)c5c4C(F)(F)[C@@H]4C[C@H]54)nc4nc(C5CCC(F)(F)CC5)cc(CN5CC(C)(C)OC(C)(C)C5)c4c3=O)c21` (atropisomer, axis not shown; (P)) [Example 471, N-[(1S)-1-[(3P)-3-[4-chloro-3-methanesulfonamido-1-(3-methoxypropyl)-1H-indazol-7-yl]-7-(4,4-difluorocyclohexyl)-4-oxo-5-[(2,2,6,6-tetramethylmorpholin-4-yl)methyl]-3H,4H-pyrido[2,3-d]pyrimidin-2-yl]-2-(3,5-difluorophenyl)ethyl]-2-[(2S,4R)-9-(difluoromethyl)-5,5-difluoro-7,8-diazatricyclo[4.3.0.0^2,^4]nona-1(6),8-dien-7-yl]acetamide] are 38 pM and > 20000 pM.
Consider `Cc1cc(C2(F)CCC(F)(F)CC2)nc2nc([C@H](Cc3cc(F)cc(F)c3)NC(=O)Cn3nc(C(F)F)c4c3C(F)(F)[C@@H]3C[C@H]43)n(-c3ccc(Cl)c4c(NS(C)(=O)=O)nn([C@H](C)CN5C[C@H](F)C[C@H](F)C5)c34)c(=O)c12` (atropisomer, axis not shown; (P)) [Example 711, N-[(1S)-1-[(3P)-3-{4-chloro-1-[(2R)-1-[(3R,5S)-3,5-difluoropiperidin-1-yl]propan-2-yl]-3-methanesulfonamido-1H-indazol-7-yl}-5-methyl-4-oxo-7-(1,4,4-trifluorocyclohexyl)-3H,4H-pyrido[2,3-d]pyrimidin-2-yl]-2-(3,5-difluorophenyl)ethyl]-2-[(2S,4R)-9-(difluoromethyl)-5,5-difluoro-7,8-diazatricyclo[4.3.0.0^2,^4]nona-1(6),8-dien-7-yl]acetamide], for which the EC50 in series [1] worked out at 26 pM. Moreover, the CC50 at 4 days in series [2] was > 20000 pM.
On to `CS(=O)(=O)Nc1nn(CCN2CCCC(F)(F)C2)c2c(-n3c([C@H](Cc4cc(F)cc(F)c4)NC(=O)Cn4nc(C(F)F)c5c4C(F)(F)[C@@H]4C[C@H]54)nc4nc(C5CCC(F)(F)CC5)cc(C(F)F)c4c3=O)ccc(Cl)c12` (atropisomer, axis not shown; (P)) [Example 292, N-[(1S)-1-[(3P)-3-{4-chloro-1-[2-(3,3-difluoropiperidin-1-yl)ethyl]-3-methanesulfonamido-1H-indazol-7-yl}-7-(4,4-difluorocyclohexyl)-5-(difluoromethyl)-4-oxo-3H,4H-pyrido[2,3-d]pyrimidin-2-yl]-2-(3,5-difluorophenyl)ethyl]-2-[(2S,4R)-9-(difluoromethyl)-5,5-difluoro-7,8-diazatricyclo[4.3.0.0^2,^4]nona-1(6),8-dien-7-yl]acetamide], for which the EC50 in series [1] amounted to 16 pM. The CC50 at 4 days in series [2] was > 50000 pM.
On the same counts, the results for `Cc1cc(C2(F)CCC(F)(F)CC2)nc2nc([C@H](Cc3cc(F)cc(F)c3)NC(=O)Cn3nc([C@H]4CC4(F)F)c4c3C[C@H]3C[C@@H]43)n(-c3ccc(Cl)c4c(NS(C)(=O)=O)nn(CCN5C[C@H](F)C[C@H](F)C5)c34)c(=O)c12` (atropisomer, axis not shown; (P)) [Example 573, N-[(1S)-1-[(3P)-3-(4-chloro-1-{2-[(3R,5S)-3,5-difluoropiperidin-1-yl]ethyl}-3-methanesulfonamido-1H-indazol-7-yl)-5-methyl-4-oxo-7-(1,4,4-trifluorocyclohexyl)-3H,4H-pyrido[2,3-d]pyrimidin-2-yl]-2-(3,5-difluorophenyl)ethyl]-2-[(2R,4R)-9-[(1R)-2,2-difluorocyclopropyl]-7,8-diazatricyclo[4.3.0.0^2,^4]nona-1(6),8-dien-7-yl]acetamide] are 12 pM and > 20000 pM.
Take `CS(=O)(=O)Nc1nn(CCN2CCC(F)(F)CC2)c2c(-n3c([C@H](Cc4cc(F)cc(F)c4)NC(=O)Cn4nc(C(F)F)c5c4C(F)(F)[C@@H]4C[C@H]54)nc4nc(C5CCC(F)(F)CC5)cc(CO)c4c3=O)ccc(Cl)c12` (atropisomer, axis not shown; (P)) [Example 675, N-[(1S)-1-[(3P)-3-{4-chloro-1-[2-(4,4-difluoropiperidin-1-yl)ethyl]-3-methanesulfonamido-1H-indazol-7-yl}-7-(4,4-difluorocyclohexyl)-5-(hydroxymethyl)-4-oxo-3H,4H-pyrido[2,3-d]pyrimidin-2-yl]-2-(3,5-difluorophenyl)ethyl]-2-[(2S,4R)-9-(difluoromethyl)-5,5-difluoro-7,8-diazatricyclo[4.3.0.0^2,4]nona-1(6),8-dien-7-yl]acetamide]: in series [1], the EC50 stood at 31 pM. For the same molecule, the CC50 at 4 days in series [2] is > 20000 pM.

The record behind these values is patent US12594276B2, “Inhibitors of human immunodeficiency virus replication” (ViiV Healthcare UK (No.5) Limited, priority 2024, dated 2026).
